Source: ChEMBL document CHEMBL1152970, “Optimization of a series of 2,4-diaminopyridines as neuropeptide Y Y1 receptor antagonists with reduced hERG activity” (Bioorg Med Chem Lett, 2009)

Legend:
[1] = physchem; conditions: octanol/water, pH 7.4
[2] = Plasma concentration in mdr1a deficient CF-1 mouse at 30 mg/kg, ip after 30 mins; format: ADME, organism-based; parameters: dose 30 mg/kg, route intraperitoneal; conditions: CF-1 (mdr1a deficient)
[3] = system: Brain; assay: Drug level in mdr1a deficient CF-1 mouse brain at 30 mg/kg, ip after 30 mins; format: ADME, organism-based; parameters: dose 30 mg/kg, route intraperitoneal; conditions: in vivo, 0.5 h
[4] = Ratio of drug level in brain to plasma in mdr1a deficient CF-1 mouse at 30 mg/kg, ip after 30 mins; format: ADME, organism-based; parameters: dose 30 mg/kg, route intraperitoneal; conditions: CF-1 (mdr1a deficient)
[5] = Plasma concentration in C57BL/6 mouse plasma at 30 mg/kg, ip after 30 mins; format: ADME, organism-based, C57BL6; parameters: dose 30 mg/kg, route intraperitoneal
[6] = system: Brain; assay: Drug level in C57BL/6 mouse brain at 30 mg/kg, ip after 30 mins; format: ADME, organism-based, C57BL6; parameters: dose 30 mg/kg, route intraperitoneal; conditions: in vivo, 0.5 h
[7] = Ratio of drug level in brain to plasma in C57BL/6 mouse at 30 mg/kg, ip after 30 mins; format: ADME, organism-based, C57BL6; parameters: dose 30 mg/kg, route intraperitoneal

Row | SMILES | logD [1] | other results
1 | Cc1nc(SCc2cc(N3CCOCC3)cc(NCC#N)n2)n(C)c1C | 1 | –
2 | CCc1oc(SCc2cc(N3CCOCC3)cc(NCC#N)n2)nc1C | 2.6 | –
3 | CCc1oc(CCc2cc(N3CCOCC3)cc(NCC#N)n2)nc1C | 2.4 | –
4 | CCc1oc(CCc2cc(N3CCOCC3)cc(NC(C)C)n2)nc1C | 2.4 | –
5 | CCCNc1cc(N2CCOCC2)cc(CCc2nc(C)c(CC)o2)n1 | 2.5 | –
6 | CCc1oc(CCc2cc(N3CCOCC3)cc(NC(C)=O)n2)nc1C | 2.3 | –
7 | CCc1oc(CCc2cc(N3CCOCC3)cc(NCC(F)(F)F)n2)nc1C | 3.5 | –
8 | Cc1nc(OCc2cc(N3CCOCC3)cc(NCC#N)n2)oc1C | 2.1 | –
9 | Cc1nc(SCc2cc(N3CCOCC3)cc(NCC#N)n2)sc1C | 2.4 | concentration at 0.5 h [2]: 5.2 µM; Drug uptake [3]: 4.7 nmol/g; Kp at 0.5 h [4]: 0.9; concentration at 0.5 h [5]: 3.4 µM; Drug uptake [6]: 0.9 nmol/g; Kp at 0.5 h [7]: 0.27
10 | CCc1oc(CCc2cc(N3CCOCC3)cc(NCCC#N)n2)nc1C | 2 | –
11 | CCOC(=O)CNc1cc(N2CCOCC2)cc(CCc2nc(C)c(CC)o2)n1 | 2.8 | –
12 | Cc1nc(SCc2cc(N3CCOCC3)cc(NCC#N)n2)oc1C | 2 | –
13 | CCNc1cc(N2CCOCC2)cc(CCc2nc(C)c(CC)o2)n1 | 2.2 | –
14 | CCc1sc(CCc2cc(N3CCOCC3)cc(NC(C)c3cc(Cl)cc(NC(=O)OC(C)C)c3)n2)nc1C (stereo unspecified) | > 4 | –
15 | CCc1oc(CCc2cc(N3CCOCC3)cc(NC)n2)nc1C | 1.7 | –
